# Laboratory results published in PubChem BioAssay (NCI).
#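 Interpolation was linear, between the two tested concentrations surrounding the appropriate level; five concentrations were tested over 48 hours in 96-well plates. GI50: concentration for 50% inhibition of growth. TGI: total growth inhibition.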
# Assays:
# Experiment in all cases: DTP human tumour cell line panel, 48 h
# [1] = test system: 786-0 renal
# [2] = test system: A498 renal
# [3] = test system: A549 NSCLC
# [4] = test system: ACHN renal
# [5] = test system: BT-549 breast
# [6] = test system: CAKI-1 renal
# [7] = test system: CCRF-CEM leukemia
# [8] = test system: COLO 205 colon
# [9] = test system: DU-145 prostate
# [10] = test system: EKVX NSCLC
# [11] = test system: HCC-2998 colon
# [12] = test system: HCT-116 colon
# [13] = test system: HCT-15 colon
# [14] = test system: HL-60(TB) leukemia
# [15] = test system: HOP-62 NSCLC
# [16] = test system: HOP-92 NSCLC
# [17] = test system: HS 578T breast
# [18] = test system: HT29 colon
# [19] = test system: IGROV1 ovarian
# [20] = test system: K-562 leukemia
# [21] = test system: KM12 colon
# [22] = test system: LOX IMVI melanoma
# [23] = test system: M14 melanoma
# [24] = test system: MALME-3M melanoma
# [25] = test system: MCF7 breast
# [26] = test system: MDA-MB-231 breast
# [27] = test system: MDA-MB-435
# [28] = test system: MOLT-4 leukemia
# [29] = test system: NCI-H226 lung
# [30] = test system: NCI-H23 lung
# [31] = test system: NCI-H460 lung
# [32] = test system: NCI-H522 lung
# [33] = test system: NCI/ADR-RES ovarian
# [34] = test system: OVCAR-3 ovarian
# [35] = test system: OVCAR-4 ovarian
# [36] = test system: OVCAR-5 ovarian
# [37] = test system: OVCAR-8 ovarian
# [38] = test system: PC-3 prostate
# [39] = test system: RPMI-8226 leukemia
# [40] = test system: RXF 393 renal
# [41] = test system: SF-268 CNS
# [42] = test system: SF-295 CNS
# [43] = test system: SF-539 CNS
# [44] = test system: SK-MEL-2 melanoma
# [45] = test system: SK-MEL-28 melanoma
# [46] = test system: SK-MEL-5 melanoma
# [47] = test system: SK-OV-3 ovarian
# [48] = test system: SN12C renal
# [49] = test system: SNB-19 CNS
# [50] = test system: SNB-75 CNS
# [51] = test system: SR leukemia
# [52] = test system: SW-620 colon
# [53] = test system: T-47D breast
# [54] = test system: TK-10 renal
# [55] = test system: U251 CNS
# [56] = test system: UACC-257 melanoma
# [57] = test system: UACC-62 melanoma
# [58] = test system: UO-31 renal
smiles,measurement,setting,value
COC(=O)c1c2c(c(C)[n+]([O-])c1C)C(=O)C(NCc1ccc(F)cc1)=CC2=O,GI50,[1],2850 nM
same,TGI,[1],30100 nM
same,GI50,[2],1570 nM
same,TGI,[2],3290 nM
same,GI50,[3],1790 nM
same,TGI,[3],5660 nM
same,GI50,[4],1730 nM
same,TGI,[4],4040 nM
same,GI50,[5],1730 nM
same,TGI,[5],3780 nM
same,GI50,[6],2060 nM
same,TGI,[6],6000 nM
same,GI50,[7],2340 nM
same,TGI,[7],8360 nM
same,GI50,[8],376 nM
same,TGI,[8],1360 nM
same,GI50,[9],2110 nM
same,TGI,[9],4760 nM
same,GI50,[10],1660 nM
same,TGI,[10],4140 nM
same,GI50,[11],1790 nM
same,TGI,[11],4570 nM
same,GI50,[12],957 nM
same,TGI,[12],6280 nM
same,GI50,[13],1230 nM
same,TGI,[13],3000 nM
same,GI50,[14],745 nM
same,TGI,[14],3600 nM
same,GI50,[15],2400 nM
same,TGI,[15],22500 nM
same,GI50,[16],2310 nM
same,TGI,[16],4610 nM
same,GI50,[17],2470 nM
same,TGI,[17],8030 nM
same,GI50,[18],711 nM
same,TGI,[18],> 100000 nM
same,GI50,[19],1150 nM
same,TGI,[19],2760 nM
same,GI50,[20],2430 nM
same,TGI,[20],> 100000 nM
same,GI50,[21],1660 nM
same,TGI,[21],6490 nM
same,GI50,[22],1940 nM
same,TGI,[22],6320 nM
same,GI50,[23],1210 nM
same,TGI,[23],2690 nM
same,GI50,[24],187 nM
same,TGI,[24],493 nM
same,GI50,[25],1110 nM
same,TGI,[25],2860 nM
same,GI50,[26],1460 nM
same,TGI,[26],4360 nM
same,GI50,[27],582 nM
same,TGI,[27],1840 nM
same,GI50,[28],1980 nM
same,TGI,[28],5330 nM
same,GI50,[29],2160 nM
same,TGI,[29],4870 nM
same,GI50,[30],1330 nM
same,TGI,[30],3790 nM
same,GI50,[31],792 nM
same,TGI,[31],5980 nM
same,GI50,[32],1700 nM
same,TGI,[32],4020 nM
same,GI50,[33],1680 nM
same,TGI,[33],5530 nM
same,GI50,[34],319 nM
same,TGI,[34],1110 nM
same,GI50,[35],519 nM
same,TGI,[35],1870 nM
same,GI50,[36],1800 nM
same,TGI,[36],3590 nM
same,GI50,[37],1590 nM
same,TGI,[37],7780 nM
same,GI50,[38],1790 nM
same,TGI,[38],> 100000 nM
same,GI50,[39],2000 nM
same,TGI,[39],6820 nM
same,GI50,[40],1560 nM
same,TGI,[40],3510 nM
same,GI50,[41],2510 nM
same,TGI,[41],9080 nM
same,GI50,[42],1420 nM
same,TGI,[42],3000 nM
same,GI50,[43],1720 nM
same,TGI,[43],3150 nM
same,GI50,[44],1750 nM
same,TGI,[44],4030 nM
same,GI50,[45],3200 nM
same,TGI,[45],15600 nM
same,GI50,[46],300 nM
same,TGI,[46],1000 nM
same,GI50,[47],2920 nM
same,TGI,[47],9110 nM
same,GI50,[48],1170 nM
same,TGI,[48],2620 nM
same,GI50,[49],2100 nM
same,TGI,[49],5200 nM
same,GI50,[50],2230 nM
same,TGI,[50],5960 nM
same,GI50,[51],1700 nM
same,TGI,[51],> 100000 nM
same,GI50,[52],1170 nM
same,TGI,[52],3200 nM
same,GI50,[53],1720 nM
same,TGI,[53],4230 nM
same,GI50,[54],3320 nM
same,TGI,[54],36700 nM
same,GI50,[55],1810 nM
same,TGI,[55],5140 nM
same,GI50,[56],845 nM
same,TGI,[56],2440 nM
same,GI50,[57],1250 nM
same,TGI,[57],2650 nM
same,GI50,[58],1670 nM
same,TGI,[58],3770 nM
